These are literature values, as cited in patent US9192596B2, “Self-emulsifying pharmaceutical compositions of rhein or diacerein” (WOCKHARDT RESEARCH CENTRE, priority 2007, dated 2015).

For data set [1] the following is noted: inherent pharmacokinetic property; rhein-glucuronide converted to rhein-9-anthrone in colon.
Assay in data set [2]: not given
The source holds these as a separate data set.

Where a name gives a salt, the structure may show the parent alone.

Take `CC(=O)Oc1cccc2c1C(=O)c1c(OC(C)=O)cc(C(=O)O)cc1C2=O` [diacerein, 4,5-bis(acetyloxy) 9,10-dihydro-4,5-dihydroxy-9,10-dioxo-2-anthracenecarboxylic acid]: where the note is “water, alcohols, acetone, dichloromethane and chloroform”, the solubility result is listed as “practically insoluble”. In addition, the “soft stool effect expected due to enterohepatic circulation” value in data set [1] is reported as 30-40%. For the same compound, the pKa in data set [2] is reported as 4.5. For the same compound, in data set [2] (acidic and alkaline conditions), the stability entry was “instability under acidic and alkaline conditions”.
For `CC(=O)Oc1cccc2c1C(=O)c1c(OC(C)=O)cc(C(=O)O)cc1C2=O` [potassium salt of diacerein], under “EP 243,968”, the solubility in water entry is “water-soluble”.
